US8871728B2, “Non-peptide macrocyclic histone deacetylese (HDAC) inhibitors and methods of making and using thereof” (Georgia Tech Research Corporation, priority 2007, dated 2014)
pEC50, pIC50: −log10 of the molar value.

Tests used:
HDAC8 = HDAC8 (Homo sapiens (Human), UniProt Q9BY41); experiment: Fluor de Lys HDAC8 inhibition; type: biochemical; conditions: for pIC50: Table 5, read-out: HDAC 8; for HDAC8: Nuclear Extract Isoform Selectivity: ratio of IC50 HDAC8 to nuclear extract
[1] = system: promastigote stage of L. donovani; experiment: Antileishmanial Alamar blue fluorometric assay; type: cell-based; conditions: promastigotes
Procedure: (§1) The compounds described herein were also evaluated for parasitic activity against Plasmodium falciparum and Leismania donovani. P. falciparum and L. donovani are the causative parasites of malaria and leishmaniasis, two human diseases which constitute a serious threat to public health in tropical and sub-tropical countries. Antimalarial activity was evaluated in vitro using chloroquine-sensitive (D6, Sierra Leone) and chloroquine-resistant (W2, Indochina) strains of P. falciparum. Antileishmanial activity was evaluated in vitro against the promastigote stage of L. donovani.
(§2) Plasmodium growth inhibition was determined by a parasite lactate dehydrogenase assay using Malstat reagent. Inhibition of viability of the promastigote stage of L. donovani was determined using standard Alamar blue assay, modified to a fluorometric assay.
(§3) Macrocyclic histone deacetylase inhibitors were evaluated for parasitic activity against Plasmodium falciparum and Leismania donovani. P. falciparum and L. donovani are the causative parasites of malaria and leishmaniasis, two human diseases which constitute a serious threat to public health in tropical and sub-tropical countries. Antimalarial activity was evaluated in vitro using chloroquine-sensitive (D6, Sierra Leone) and chloroquine-resistant (W2, Indochina) strains of P. falciparum. Antileishmanial activity was evaluated in vitro against the promastigote stage of L. donovani.
as §2

[2] = system: Plasmodium falciparum (D6 clone), chloroquine-sensitive; experiment: Plasmodium growth inhibition, parasite lactate dehydrogenase assay (Malstat); type: cell-based; conditions: for Plasmodium falciparum (D6 clone) IC50: chloroquine-sensitive; for S.I. D6: selective toxicity index, Vero versus D6
Procedure: as §1, §2, §3, §2

[3] = system: Plasmodium falciparum (W2 clone), chloroquine-resistant; experiment: as above; type: cell-based; conditions: for Plasmodium falciparum (W2 clone) IC50: chloroquine-resistant; for S.I. (W2): selective toxicity index, Vero versus W2, value in brackets
Procedure: as §1, §2, §3, §2

prostate (DU-145) = experiment: Cell viability, MTS colorimetric assay; type: cell-based
Procedure: (§4) The effect of compounds 56a-e on cancer cell lines: prostate (DU-145), lung (A549), and breast cancer (MCF-7) and a non-transformed cell, human lung fibroblast cell (Hs1.Lu) were also evaluated.

breast cancer (MCF-7) = experiment: Cell viability, MTS colorimetric assay; type: cell-based
Procedure: as §4

lung (A549) = experiment: Cell viability, MTS colorimetric assay; type: cell-based
Procedure: as §4

[4] = system: HeLa nuclear extract HDAC1/2; experiment: Fluor de Lys HDAC inhibition, HeLa nuclear extract; type: biochemical, human; conditions: HDACs 1 and 2 from HeLa cell nuclear extract; Table 5; read-out: Nuclear Extract
HDAC6 = HDAC6 (Homo sapiens (Human), UniProt Q9UBN7); experiment: Fluor de Lys HDAC6 inhibition; type: biochemical; conditions: for pIC50: Table 5, read-out: HDAC 6; for HDAC6: Nuclear Extract Isoform Selectivity: ratio of IC50 HDAC6 to nuclear extract
From the text: Fluor de Lys™ is a fluorescence based HDAC activity assay comprising a combination of fluorogenic Histone deAcetylase Lysyl substrate and a developer. The kit is a highly sensitive and convenient alternative to radiolabeled, acetylated histones or peptide/HPLC methods for the assay of histone deacetylases. This assay is based on the ability of HeLa nuclear extract, which is enriched in HDAC activity, to mediate the deacetylation of the acetylated lysine side chain of the Fluor de Lys substrate. The assay procedure requires two steps. First, incubation of the HeLa nuclear extract with the Fluor de Lys substrate results in substrate deacetylation and thus sensitizes it to the second step. In the second step, treatment of the deacetylated substrate with the Fluor de Lys developer produces a fluorophore. The substrate-developer reaction, under normal circumstances goes to completion in less than 1 min at 25° C. The kit used was the Fluorimetric Assay/Drug Discovery Kit—AK-500 Manual Fluorescent Assay System available from BIOMOL® International, Plymouth Meeting, Pa.
The ketolides 56 were also evaluated for their HDAC inhibitory activity against HDACs 1 and 2 from HeLa cell nuclear extract, HDAC6, and HDAC8 using the Fluor de Lys assay.

HDAC8, sequence (Q9BY41 whole entry, canonical isoform): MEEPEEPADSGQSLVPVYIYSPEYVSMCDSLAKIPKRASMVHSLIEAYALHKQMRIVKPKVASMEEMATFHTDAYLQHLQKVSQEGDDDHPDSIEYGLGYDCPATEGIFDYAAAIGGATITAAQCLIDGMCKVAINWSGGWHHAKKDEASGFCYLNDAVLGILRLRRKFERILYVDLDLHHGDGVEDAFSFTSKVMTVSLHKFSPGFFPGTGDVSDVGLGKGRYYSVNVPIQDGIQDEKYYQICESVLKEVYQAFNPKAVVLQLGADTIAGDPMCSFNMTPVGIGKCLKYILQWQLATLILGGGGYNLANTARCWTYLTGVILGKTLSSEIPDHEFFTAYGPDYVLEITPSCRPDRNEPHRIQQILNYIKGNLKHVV
HDAC6, sequence (Q9UBN7 whole entry, canonical isoform): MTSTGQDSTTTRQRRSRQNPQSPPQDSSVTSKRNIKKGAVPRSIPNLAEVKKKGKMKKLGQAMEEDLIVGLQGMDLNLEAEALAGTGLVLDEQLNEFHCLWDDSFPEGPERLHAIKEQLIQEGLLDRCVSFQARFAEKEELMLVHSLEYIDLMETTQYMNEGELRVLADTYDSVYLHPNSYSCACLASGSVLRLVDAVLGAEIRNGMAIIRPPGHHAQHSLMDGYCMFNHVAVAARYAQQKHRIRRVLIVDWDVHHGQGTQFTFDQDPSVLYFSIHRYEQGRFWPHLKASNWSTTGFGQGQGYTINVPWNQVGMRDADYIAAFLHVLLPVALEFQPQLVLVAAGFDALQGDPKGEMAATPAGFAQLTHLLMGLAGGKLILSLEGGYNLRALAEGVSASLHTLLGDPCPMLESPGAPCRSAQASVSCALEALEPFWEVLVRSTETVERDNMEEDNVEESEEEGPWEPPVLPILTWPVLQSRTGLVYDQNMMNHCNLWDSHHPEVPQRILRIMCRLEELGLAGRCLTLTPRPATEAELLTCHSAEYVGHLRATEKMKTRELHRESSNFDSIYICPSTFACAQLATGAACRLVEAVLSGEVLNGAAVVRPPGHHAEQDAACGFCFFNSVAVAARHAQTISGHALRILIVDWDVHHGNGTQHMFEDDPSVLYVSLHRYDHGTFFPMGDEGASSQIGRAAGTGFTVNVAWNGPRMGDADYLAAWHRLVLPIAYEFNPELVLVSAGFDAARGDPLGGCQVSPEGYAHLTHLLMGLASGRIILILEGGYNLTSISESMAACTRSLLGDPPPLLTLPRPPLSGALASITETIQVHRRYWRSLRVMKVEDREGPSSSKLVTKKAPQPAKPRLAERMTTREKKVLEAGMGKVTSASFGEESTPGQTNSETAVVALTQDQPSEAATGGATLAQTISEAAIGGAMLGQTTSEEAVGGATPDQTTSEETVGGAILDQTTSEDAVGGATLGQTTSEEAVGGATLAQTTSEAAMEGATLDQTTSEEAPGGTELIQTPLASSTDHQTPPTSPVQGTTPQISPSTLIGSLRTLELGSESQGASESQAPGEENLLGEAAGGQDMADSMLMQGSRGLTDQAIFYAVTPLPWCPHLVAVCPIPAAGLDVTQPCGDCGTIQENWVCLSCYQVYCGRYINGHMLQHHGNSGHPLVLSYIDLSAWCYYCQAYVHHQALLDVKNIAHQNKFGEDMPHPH

Row | SMILES | pIC50 (HDAC8) | HDAC8: Nuclear Extract Isoform Selectivity (HDAC8) | Antileshmanial activity IC50 [1] [µg/mL] | Antileshmanial activity IC90 [1] [µg/mL] | Plasmodium falciparum (D6 clone) IC50 [2] [µg/mL] | S.I. D6 [2] | Plasmodium falciparum (W2 clone) IC50 [3] [µg/mL] | S.I. (W2) [3] | pEC50 (prostate (DU-145)) | pEC50 (breast cancer (MCF-7)) | pEC50 (lung (A549)) | pIC50 [4] | pIC50 (HDAC6) | HDAC6: Nuclear Extract Isoform Selectivity (HDAC6)
1 | CCC1OC(=O)C(C)C(=O)C(C)C(OC2OC(C)CC(N(C)Cc3ccc(-c4cn(CCCCCCCCC(=O)NO)nn4)cc3)C2O)C(C)(OC)CC(C)C2=NCCN3C(=O)OC1(C)C3C2C (stereo not drawn) [Compound 56d, Tricyclic Ketolide-N-benzyltriazolylnonahydroxamic acid] | 5.54 | 17.5 | 14 | 32 | 1.20 | > 4.0 | 1.30 | > 3.7 | 5.41 | 5.59 | 5.61 | 6.79 | 5.72 | 11.7
2 | CCC1OC(=O)C(C)C(=O)C(C)C(OC2OC(C)CC(N(C)Cc3ccc(-c4cn(CCCCCCCC(=O)NO)nn4)cc3)C2O)C(C)(OC)CC(C)C2=NCCN3C(=O)OC1(C)C3C2C (stereo not drawn) [Compound 56c, Tricyclic Ketolide-N-benzyltriazolyloctahydroxamic acid] | 5.72 | 18.3 | 19 | 36 | 1.20 | > 4.0 | 1.50 | > 3.2 | 5.43 | 5.87 | 5.79 | 6.98 | 5.77 | 16.4
3 | CCC1OC(=O)C(C)C(=O)C(C)C(OC2OC(C)CC(N(C)Cc3ccc(-c4cn(CCCCCCCCCC(=O)NO)nn4)cc3)C2O)C(C)(OC)CC(C)C2=NCCN3C(=O)OC1(C)C3C2C (stereo not drawn) [Compound 56e, Tricyclic Ketolide-N-benzyltriazolyldecahydroxamic acid] | 5.34 | 21.9 | 4.8 | 23 | 1.20 | > 4.0 | 0.84 | > 5.7 | 5.32 | 5.43 | 5.55 | 6.68 | 5.49 | 15.4
